# Reference: article PMC12396409, “Screening and hit evaluation of a microbial metabolite library against the pathogenic Plasmodium falciparum and Toxoplasma gondii parasites” (International Journal for Parasitology: Drugs and Drug …, 2025)
# Structures can show the parent of a compound that is named as a salt. Where two headings read alike, the source gives them in different places. Where a SMILES comes first, the peptide text is derived from it. Bridges are numbered along the chain shown (N, C = ends). [ ]: non-standard residue; d: D form. The star is where a group is joined. Octatrienoyl(2E,4E,6E) = C/C=C/C=C/C=C/C(=O)*; Pro(4R-Me) = C[C@H]1CN[C@H](C(=O)O)C1; NMeA = CN[C@@H](C)C(=O)O
# What was measured:
# [1] = test system: P. falciparum 3D7 parasites; experiment: P. falciparum growth inhibition assay, 2-cycle (120 h treatment), delayed-death screen and dose-response; assay type: cell-based, Plasmodium falciparum; settings: for Pf_120h_%Growth_Rep1 / Pf_120h_%Growth_Rep2: % growth; for 2) Growth (%) at 120 h / 3) Fold change (72 h/120 h): 2 μg/mL; for 3) Fold change (72 h/120 h): growth at 72 h / growth at 120 h
# [2] = test system: P. falciparum 3D7 parasites; experiment: P. falciparum growth inhibition assay, 1-cycle (72 h treatment), SYBR DNA staining (library screen at 2 μg/mL and dose-response); assay type: cell-based, Plasmodium falciparum; settings: for Pf_72h_%Growth_Rep1 / Pf_72h_%Growth_Rep2: % growth; for 1) Growth (%) at 72 h / Mean: 2 μg/mL; for Mean: mean of both replicates, growth (% of control)
# [3] = test system: T. gondii RH strain (RH-Tub-eYFP) tachyzoites; experiment: microbe, parasite or virus in culture; assay type: cell-based, Toxoplasma gondii; settings: for percent parasite growth at 2 µg/mL: Toxoplasma gondii; for Mean / Replicate 1 / Replicate 2: 2 μg/mL; for Mean: mean of both replicates, growth (% of control); for Replicate 1 / Replicate 2: values are growth (% of control)
# [4] = library screen at 2 μg/mL, 120 h, replicate 1
# [5] = library screen at 2 μg/mL, 120 h, replicate 2
# [6] = library screen at 2 μg/mL, 72 h, replicate 1
# [7] = library screen at 2 μg/mL, 72 h, replicate 2
# [8] = library screen at 2 μg/mL, 72 h, % growth, replicate 1
# [9] = library screen at 2 μg/mL, 72 h, % growth, replicate 2
# [10] = P. falciparum, 120 h, parasite screen 2 μg/mL, replicate 1
# [11] = P. falciparum, 120 h, parasite screen 2 μg/mL, replicate 2
# [12] = P. falciparum, 72 h, parasite screen 2 μg/mL, replicate 1
# [13] = P. falciparum, 72 h, parasite screen 2 μg/mL, replicate 2
# [14] = T. gondii, 72 h, parasite screen 2 μg/mL, % growth, replicate 1
# [15] = T. gondii, 72 h, parasite screen 2 μg/mL, % growth, replicate 2
# [16] = active against the parasite at 2 μg/mL, no anti-tumour (NS-1) or cytotoxic (fibroblast) activity at 5 μg/mL
# [17] = Plasmodium falciparum, 3D7; P. falciparum, 2 μg/mL, 120 h; read-out: 2) Growth (%) at 120 h
# [18] = Plasmodium falciparum, 3D7; P. falciparum, 2 μg/mL, 72 h; read-out: 1) Growth (%) at 72 h
compound,measurement,setting,value
COC1/C=C\C=C(/C)C(=O)NC2=CC(=O)C(NCCN(C)C)=C(C[C@@H](C)C[C@H](OC)[C@H](O)[C@@H](C)/C=C(\C)[C@@H]1OC(N)=O)C2=O (some centres unmarked),Pf_120h_%Growth_Rep1,[1]; [4],10.33%
same,Pf_120h_%Growth_Rep2,[1]; [5],2.04%
same,Pf_72h_%Growth_Rep1,[2]; [6],11.89%
same,Pf_72h_%Growth_Rep2,[2]; [7],-0.93%
same,Tg_72h_%Growth_Rep1,[3]; [8],-1.12%
same,Tg_72h_%Growth_Rep2,[3]; [9],-0.16%
Cc1c2c(c(O)c3c(O)ccc(Cl)c13)C(=O)C1(O)C(O)=C(C(N)=O)C(=O)C(N(C)C)C1C2.Cl (centres unmarked),Pf_120h_%Growth_Rep1,[1]; [4],95.25%
same,Pf_120h_%Growth_Rep2,[1]; [5],115.61%
same,Pf_72h_%Growth_Rep1,[2]; [6],85.99%
same,Pf_72h_%Growth_Rep2,[2]; [7],99.34%
same,Tg_72h_%Growth_Rep1,[3]; [8],119.39%
same,Tg_72h_%Growth_Rep2,[3]; [9],96.29%
CCO[C@@H]1[C@@H](OC)[C@H](C)O[C@@H](O[C@@H]2C[C@H]3CC[C@@H]4[C@@H](C=C5C(=O)[C@H](C)[C@@H](O)CCC[C@H](CC)OC(=O)C[C@H]54)[C@@H]3C2)[C@@H]1OC,Pf_120h_%Growth_Rep1,[1]; [10],31.22%
same,Pf_120h_%Growth_Rep2,[1]; [11],24.15%
same,Pf_72h_%Growth_Rep1,[2]; [12],35.55%
same,Pf_72h_%Growth_Rep2,[2]; [13],25.61%
same,Tg_72h_%Growth_Rep1,[3]; [14],110.35%
same,Tg_72h_%Growth_Rep2,[3]; [15],84.17%
CN(N=O)C(=O)N[C@H]1C(O)O[C@H](CO)[C@@H](O)[C@@H]1O (mixture of isomers) [Streptozotocin],Pf_120h_%Growth_Rep1,[1]; [10],176.62%
same,Pf_120h_%Growth_Rep2,[1]; [11],92.69%
same,Pf_72h_%Growth_Rep1,[2]; [12],87.59%
same,Pf_72h_%Growth_Rep2,[2]; [13],86.69%
same,Tg_72h_%Growth_Rep1,[3]; [14],87.36%
same,Tg_72h_%Growth_Rep2,[3]; [15],105.65%
CC[C@H]1CC2CN3CCc4c([nH]c5ccc(OC)cc45)[C@](C(=O)OC)(C2)[C@H]13 (stereo in doubt) [Voacangine],activity at 2 µg/mL,"[1]; Plasmodium falciparum, 3D7, P. falciparum, 120 h, screen at 2 μg/mL, replicate 1, read-out: Pf_120h_%Growth_Rep1",164%
same,activity at 2 µg/mL,"[1]; Plasmodium falciparum, 3D7, P. falciparum, 120 h, screen at 2 μg/mL, replicate 2, read-out: Pf_120h_%Growth_Rep2",91%
same,activity at 2 µg/mL,"[2]; Plasmodium falciparum, 3D7, P. falciparum, 72 h, screen at 2 μg/mL, replicate 1, read-out: Pf_72h_%Growth_Rep1",86.5%
same,activity at 2 µg/mL,"[2]; Plasmodium falciparum, 3D7, P. falciparum, 72 h, screen at 2 μg/mL, replicate 2, read-out: Pf_72h_%Growth_Rep2",89.9%
same,percent parasite growth at 2 µg/mL,"[3]; 72 h, T. gondii, 72 h, screen at 2 μg/mL, replicate 1, read-out: Tg_72h_%Growth_Rep1",89.9%
same,percent parasite growth at 2 µg/mL,"[3]; 72 h, T. gondii, 72 h, screen at 2 μg/mL, replicate 2, read-out: Tg_72h_%Growth_Rep2",96.7%
"CC(=O)O[C@@H]1[C@@H]2O[C@H]2[C@@](C)(O)C(=O)[C@@H](C)C/C=C/[C@H]2[C@H](O)C(C)=C(C)[C@H]3[C@H](Cc4ccccc4)NC(=O)[C@@]123 [19,20-epoxycytochalasin C]",selectivity for P. falciparum in the screens,[2]; [16],active selectively against P. falciparum and T. gondii
same,selectivity for T. gondii in the screens,[3]; [16],active selectively against P. falciparum and T. gondii
C[C@@H]1CCCCCCCCC[C@H](OC(=O)CCC(=O)O)C(=O)/C=C/C(=O)O1 [A 26771B],Pf_120h_%Growth_Rep1,[1]; [4],86.96%
same,Pf_120h_%Growth_Rep2,[1]; [5],89.23%
same,Pf_72h_%Growth_Rep1,[2]; [6],82.59%
same,Pf_72h_%Growth_Rep2,[2]; [7],86.99%
same,Tg_72h_%Growth_Rep1,[3]; [8],90.42%
same,Tg_72h_%Growth_Rep2,[3]; [9],102.55%
CC(=O)[C@H]1c2c(c(O)c3c(O)cccc3c2-c2c3c(c(O)c4c(O)cccc24)C(=O)C[C@](C)(O)[C@H]3C(C)=O)C(=O)C[C@]1(C)O [A 39183A],Pf_120h_%Growth_Rep1,[1]; [4],5.28%
same,Pf_120h_%Growth_Rep2,[1]; [5],-2.60%
same,Pf_72h_%Growth_Rep1,[2]; [6],2.40%
same,Pf_72h_%Growth_Rep2,[2]; [7],2.28%
same,Tg_72h_%Growth_Rep1,[3]; [8],90.59%
same,Tg_72h_%Growth_Rep2,[3]; [9],100.22%
"C/C=C/C=C/C=C/C(=O)N[C@@H](Cc1ccccc1)C(=O)N[C@H]1COC(=O)[C@@H]2C[C@@H](C)CN2C(=O)[C@H](C)NC(=O)[C@H](C)N(C)C(=O)[C@@H]2CCCN2C1=O [A 54556A] ({Octatrienoyl(2E,4E,6E)}-FSP[NMeA]A[Pro(4R-Me)]; ester 2-C)",Pf_120h_%Growth_Rep1,[1]; [4],58.56%
same,Pf_120h_%Growth_Rep2,[1]; [5],46.42%
same,Pf_72h_%Growth_Rep1,[2]; [6],73.00%
same,Pf_72h_%Growth_Rep2,[2]; [7],56.16%
same,Tg_72h_%Growth_Rep1,[3]; [8],149.51%
same,Tg_72h_%Growth_Rep2,[3]; [9],92.23%
"CCC[C@@H]1C[C@@H](C(=O)N[C@@H]([C@H]2O[C@H](SC)[C@H](O)[C@@H](O)[C@H]2O)[C@H](C)Cl)N(C)C1 [Clindamycin hydrochloride, reference compound]",percent parasite growth at 2 µg/mL,"[3]; 72 h, read-out: Tg_72h_%Growth_Rep1",21.7%
same,percent parasite growth at 2 µg/mL,"[3]; 72 h, read-out: Tg_72h_%Growth_Rep2",28.6%
O=C(O)c1cccc(C(=O)O)n1 [Dipicolinic acid],percent parasite growth at 2 µg/mL,"[3]; 72 h, library screen at 2 μg/mL, 72 h, % growth, replicate 1, read-out: Tg_72h_%Growth_Rep1",112%
same,percent parasite growth at 2 µg/mL,"[3]; 72 h, library screen at 2 μg/mL, 72 h, % growth, replicate 2, read-out: Tg_72h_%Growth_Rep2",89.5%
CN1CC[C@]2(c3cccc4c3N[C@H]3N(C)CC[C@@]43[C@]34CCN(C)[C@H]3Nc3ccccc34)c3ccccc3N[C@H]12 [Hodgkinsine B],Mean,"[3]; T. gondii, 72 h",34.28
same,Replicate 1,"[3]; T. gondii, 72 h",8.86
same,Replicate 2,"[3]; T. gondii, 72 h",59.70
"CN(C)c1ccc(O)c2c1C[C@H]1C[C@H]3[C@H](N(C)C)C(O)=C(C(N)=O)C(=O)[C@@]3(O)C(O)=C1C2=O [Minocycline HCl, reference compound]",Mean,"[3]; T. gondii, 72 h",21.66
same,Replicate 1,"[3]; T. gondii, 72 h",5.81
same,Replicate 2,"[3]; T. gondii, 72 h",37.51
C=C[C@]1(C)C[C@@H](O)[C@]2(C)[C@H](C)CC[C@]3(CCC(=O)[C@H]32)[C@@H](C)[C@@H]1O [Mutilin],Screen (P. falciparum),"[2]; library screen at 2 μg/mL, 3D7, 72 h, DD from the 120 h timepoint","I, I"
same,Screen (T. gondii),"[3]; library screen at 2 μg/mL, RH strain, 72 h","I, I"
Cc1cc(=O)n2c3c(c4c(cc13)c(CO)cc(=O)n4C)OC2 [Nybomycin],2) Growth (%) at 120 h,"[1]; P. falciparum, 120 h",16.54%
same,3) Fold change (72 h/120 h),[1]; P. falciparum,1.9
same,1) Growth (%) at 72 h,"[2]; P. falciparum, 72 h",31.94%
same,Mean,"[2]; P. falciparum, 72 h",31.94
CC[C@H]1/C=C/C=C/C[C@@H](C)[C@H](O)[C@@](C)(O)C(=O)[C@@H](C)[C@H](O)[C@@H](C)C(=O)[C@@H](C)[C@H](O)[C@@H](C)/C=C/C(=O)O[C@H]2C[C@@]3(CC[C@H](C)[C@H](C[C@@H](C)O)O3)O[C@@H](CC1)[C@H]2C [Oligomycin D],2) Growth (%) at 120 h,"[1]; P. falciparum, 120 h",14.87%
same,3) Fold change (72 h/120 h),[1]; P. falciparum,1.5
same,1) Growth (%) at 72 h,"[2]; P. falciparum, 72 h",21.67%
same,Mean,"[2]; P. falciparum, 72 h",21.67
CC(C)=CCC[C@H](C)[C@H]1CC[C@]2(C)C[C@H]3[C@H](C(=O)C[C@@]3(C)O)/C(C=O)=C\C[C@@H]12 [Ophiobolin C],Mean,"[3]; T. gondii, 72 h",48.72
same,Replicate 1,"[3]; T. gondii, 72 h",7.63
same,Replicate 2,"[3]; T. gondii, 72 h",89.80
"CN[C@@H]1C[C@H]2O[C@@](C)([C@@H]1OC)n1c3ccccc3c3c4c(c5c6ccccc6n2c5c31)C(=O)NC4=O [Oxostaurosporine, 7-]",Mean,"[3]; T. gondii, 72 h",37.90
same,Replicate 1,"[3]; T. gondii, 72 h",57.26
same,Replicate 2,"[3]; T. gondii, 72 h",18.54
"CN(C)[C@@H]1C(O)=C(C(N)=O)C(=O)[C@@]2(O)C(O)=C3C(=O)c4c(O)cccc4[C@@](C)(O)[C@H]3[C@H](O)[C@@H]12 [Oxytetracycline, reference compound]",3) Fold change (72 h/120 h),[1]; P. falciparum,3.1
same,activity at 2 µg/mL,[1]; [17],15.2%
same,activity at 2 µg/mL,[2]; [18],47.4%
COC(=O)c1ccc(CCCCCCCCCCc2ccc(C(=O)OC)nc2)cn1 [Penicolinate A],Mean,"[3]; T. gondii, 72 h",44.53
same,Replicate 1,"[3]; T. gondii, 72 h",16.04
same,Replicate 2,"[3]; T. gondii, 72 h",73.01
Oc1cc(O)cc(O)c1 [Phloroglucinol],3) Fold change (72 h/120 h),[1]; P. falciparum,3.9
same,activity at 2 µg/mL,[1]; [17],13.2%
same,activity at 2 µg/mL,[2]; [18],51.2%
Methylcanidine,2) Growth (%) at 120 h,"[1]; P. falciparum, 120 h",11.61%
same,3) Fold change (72 h/120 h),[1]; P. falciparum,1.8
same,1) Growth (%) at 72 h,"[2]; P. falciparum, 72 h",21.12%
same,Mean,"[2]; P. falciparum, 72 h",21.12
Milbemycin oxime [reference compound],2) Growth (%) at 120 h,"[1]; P. falciparum, 120 h",3.08%
same,3) Fold change (72 h/120 h),[1]; P. falciparum,7.7
same,1) Growth (%) at 72 h,"[2]; P. falciparum, 72 h",23.75%
